Reference: patent publication US5104859A, “Continuous administration of adenosine to reduce pulmonary vascular resistance” (priority 1990, dated 1992)
Where “and” joins values, the source holds several entries; their conditions need not be identical. Equal entries are not always repeated. Entries after “also recorded” stand apart in the source; their conditions may differ.

Tests used:
[1] = Fredholm and Sollevi; cited from earlier work
[2] = test system: atrio-ventricular (A-V) node; test: Atrio-ventricular conductance / heart block; format: in vivo, human
Source text: In accordance with this invention, adenosine may be administered to human patients by continuous intravenous infusion to provide significant vasodilation and without significant heart blockage under two conditions. First, the heart blocking action of adenosine is not detected during anesthesia when the rate of administration is 0.35 milligrams of adenosine per kilogram of body weight per minute or less. Second, the heart blocking action of adenosine is not detected, even in conscious patients, at rates of administration of about 0.10 milligram of adenosine per kilogram of body weight per minute or less.

[3] = test system: pulmonary vascular resistance
[4] = test system: systemic arterial blood pressure and central hemodynamics; test: Controlled hypotension during anesthesia: central hemodynamics (dipyridamole-pretreated cerebral aneurysm surgery patients); details: for tachyphylaxis: constant infusion rate during hypotension
Procedure: One hour before the operation the patients were premedicated orally with diazepam (10-20 mg.) Atropine (0.5 mg) and droperidol (0.1 mg. per kg.) were given intravenously before induction of anesthesia. Induction was started with thiopental (5 mg. per kg) followed by phenoperidine (1-2 mg), a synthetic opiate with pharmacodymanics resembling fentanyl but with a longer duration of action and 1/10 of its analgesic potency.
Pancuronium bromide (0.1 mg per kg) was given to facilitate endotracheal intubation. Anesthesia was maintained by supplementary doses of phenoperidine and droperidol, as required. […] Phenoperidine was supplemented regularly to prevent the blood pressure from exceeding the preanesthetic level (approx. 1 mg/30-60 min). Controlled hyperventilation was employed with a humidified gas mixture of 60% N2 O in oxygen to maintain PaCO2 values at approximately 30 mmHg (±1.5/SEM). Mannitol (1-1.5 g. per kg) was given routinely at the start of the operation (e.g., 1-2 hours prior to the controlled hypotension). The patients were operated on in the horizontal supine position.
A 1.2-mm plastic cannula was introduced into the left radial artery to monitor systemic arterial blood pressure (MABP) and collect arterial blood. A balloon-tipped, flow-directed, quadruple lumen Swan-Ganz catheter (Model 93A-831-7.5 F, VIP) was inserted percutaneously via the left basilic vein, and its correct position in the pulmonary artery was determined by pressure tracings. The catheter was used for the monitoring of mean right atrial pressure (RAP), mean pulmonary artery pressure (PAP), and mean pulmonary capillary wedge pressure (PCWP) for the determination of cardiac output and collection of mixed venous blood and for the infusion of adenosine. Another plastic cannula was introduced percutaneously, in a retrograde direction, into the right jugular bulb for the collection of blood. The correct position was verified by x-ray.
The ECG was monitored with a standard chest (V5) lead. Heart rate was determined from the R-R interval. Blood pressures were measured by transducers placed at the midthoracic level. Cardiac output (QT) was determined in triplicate according to the thermodilution technique with a cardiac output computer (Edwards Lab, model 9510). Isotonic glucose, 10 ml at 1° C., was used as a thermal indicator. The ECG, heart rate, blood pressures, and thermodilution curves were recorded on a Grass® polygraph.
(§1) Measurements and blood samplings were performed immediately before hypotension, as late as possible during hypotension (1-5 min before terminating the infusion) and approximately 30 min after the hypotensive period.
(§2) Dipyridamole (5 mg. per ml) was infused iv (0.3-0.4 mg. per kg. over a period of 5-10 min) approximately 20 minutes prior to the induction of controlled hypotension. […] (See Pedersen, J. Chromatogr., 162: 98-103 (1979).
(§3) The infusion was started at a rate of 0.01 mg. per kg. per minute, which was doubled at 15 second intervals until the desired MABP level of 40-50 mmHg was reached. […] Serum creatinine was determined before and on two consecutive days after operation. The standard ECG was recorded the day before and the day after operation.
Systemic vascular resistance (SVR) was derived from the formula [formula] and pulmonary vascular resistance (PVR) from the formula [formula]
(§4) The statistical significance (control 1 vs. adenosine and control 1 vs. control 2) was determined by Student's t test for paired data. A P value of <0.05 was regarded as significant.

[5] = Purine levels in arterial plasma before, during and after adenosine-induced controlled hypotension (HPLC); details: in vivo
Procedure: Blood gases were measured with appropriate electrodes for pH, PCO2, and PO2 (Radiometer, Copenhagen). The hemoglobin concentration was determined spectrophotometrically. Samples for the determination of adenosine and its metabolites were collected as described by Sollevi et al., Acta Physiol. Scand., 120: 171-76 (1984). Adenosine and inosine were purified and analyzed by HPLC as described by Fredholm and Sollevi., J. Physiol. (London), 313: 351-67 (1981). Hypoxanthine, xanthine, and uric acid were analyzed by HPLC according to the method of Schweinsberg and Loo., J. Chromatogr., 181: 103-7 (1980). Arterial levels of dipyridamole were determined by HPLC. J. Chromatogr., 162: 98-103 (1979). Blood lactate was measured according to Tfelt-Hansen and Siggard-Andersen. Scand. Clin. Lab. Invest., 27:15-19 (1971).
as §1, §2, §3, §4
The purine levels of nine of the patients were determined prior to, during and after adenosine-induced controlled hypotension.

[6] = Control 2, 30 min after hypotension

Q: Which results are given for Nc1ncnc2c1ncn2[C@@H]1O[C@H](CO)[C@@H](O)[C@H]1O [adenosine]?
A: plasma half-life [1]: 10 to 20 s; heart block in conscious patients ([2]; about 0.10 mg/kg/min or less): not detected; heart block / blockage of A-V conductance during anesthesia ([2]; anesthesia, 0.35 mg/kg/min or less, 0.35 mg/kg): not detected; also recorded: does not occur; also recorded: no blockage of atrio-ventricular conductance is observed; A-V activity at vasodilating doses ([2]; continuous infusion): significant useful vasodilating action at dosages below those at which it has significant A-V activity; pulmonary vascular resistance in induced pulmonary hypertension ([3]; intravenous, hypoxic ventilation during anesthesia): marked reduction; systemic vasodilator effects, cardiac output, arterial oxygen at doses lowering pulmonary resistance ([3]; pig, in vivo): commonly do not result in detectable vasodilator effects or effects on cardiac output or arterial oxygen function; PVR during adenosine [4]: unchanged; RAP, PAP and PCWP [4]: not influenced; decrease in MABP [4]: 43±3%; decrease in SVR [4]: 61±3%; increase in cardiac output [4]: 44±9%; increase in heart rate [4]: 9±2 beats per minute; Cardiac output [4, 6]: 5.17 ± 0.54 liters per min.; Diastolic blood pressure [4, 6]: 71 ± 3 mmHg; Mean arterial blood pressure [4, 6]: 91 ± 4 mmHg; Pulmonary artery pressure [4, 6]: 14.7 ± 1.4 mmHg; Pulmonary capillary wedge pressure [4, 6]: 9.9 ± 1.4 mmHg; Pulmonary vascular resistance [4, 6]: 0.97 ± 0.15 mmHg per liter min.; Right atrial pressure [4, 6]: 5.6 ± 0.8 mmHg; Systolic blood pressure [4, 6]: 130 ± 7 mmHg; heart rate [4, 6]: 58 ± 3 beats per min.; rebound hypertension ([4]; after discontinuation of infusion): did not occur; tachyphylaxis [4]: without evidence of tachyphylaxis; tachyphylaxis ([4]; listed as Adenosine): absence of tachyphylaxis; SVR during adenosine ([4]; decreased from 16.7): 6.2 mmHg per liter a minute; Cardiac output ([4]; during adenosine): 6.86 ± 0.71 liters per min.; Diastolic blood pressure ([4]; during adenosine): 34 ± 2 mmHg; Mean arterial blood pressure ([4]; during adenosine): 46 ± 2 mmHg and 46 mmHg; Pulmonary artery pressure ([4]; during adenosine): 16.5 ± 0.9 mmHg; Pulmonary capillary wedge pressure ([4]; during adenosine): 11.0 ± 1.0 mmHg; Pulmonary vascular resistance ([4]; during adenosine): 0.82 ± 0.08 mmHg per liter min.; Right atrial pressure ([4]; during adenosine): 7.2 ± 0.7 mmHg; Systolic blood pressure ([4]; during adenosine): 78 ± 6 mmHg; heart rate ([4]; during adenosine): 63 ± 3 beats per min.; cardiac output during adenosine ([4]; increased from 4.9): 6.9 1 per minute; MABP increase after hypotension vs control period ([4]; persistently higher after hypotension): approximately 10 mmHg; time to decrease in MABP ([4]; within): 1 to 2 min; time to restoration of MABP after discontinuation ([4]; within): 1 to 5 min; concentration ([5]; human, iv): 2450 ± 650 nM; time for arterial adenosine levels to return to control values after termination of infusion [5]: 3 to 9 min
